Test results published in US10011572B2, “Monocyclic isoxazolines as inhibitors of cholesterol ester transfer protein” (Merck Sharp & Dohme Corp., priority 2014, dated 2018).

Tests used:
[1] = biological target: T1, endogenous CETP from serum (Homo sapiens, UniProt P11597); assay: RTA assay in 95% human serum (in vitro radioactive assay of CETP-catalyzed CE and TG transfer, endogenous CETP); format: biochemical; conditions: read-out: IC50 (nM) RTA with 95% HS
T1 construct: yielding a concentration of approximately 15 nM endogenous CETP in the assay; from tissue; host or cells: human serum
T1 sequence (P11597 18-493): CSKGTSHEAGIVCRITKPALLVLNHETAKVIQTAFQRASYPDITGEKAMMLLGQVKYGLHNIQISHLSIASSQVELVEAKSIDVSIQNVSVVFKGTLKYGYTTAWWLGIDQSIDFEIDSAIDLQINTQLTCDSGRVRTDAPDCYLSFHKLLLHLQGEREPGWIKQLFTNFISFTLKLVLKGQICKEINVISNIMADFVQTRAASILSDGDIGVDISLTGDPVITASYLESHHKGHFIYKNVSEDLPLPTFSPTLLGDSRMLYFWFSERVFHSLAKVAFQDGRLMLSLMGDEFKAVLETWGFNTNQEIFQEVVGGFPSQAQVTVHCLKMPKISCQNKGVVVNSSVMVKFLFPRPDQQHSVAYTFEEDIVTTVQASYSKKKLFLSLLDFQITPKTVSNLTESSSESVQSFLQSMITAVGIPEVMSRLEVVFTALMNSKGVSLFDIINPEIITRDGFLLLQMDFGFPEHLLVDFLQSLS
Procedure: In Vitro Radioactive Assays of CETP-Catalyzed CE and TG Transfer (RTA Assay)
Reagents and sources are: [3H] cholesteryl oleate (GE #TRK.886), [3H] Triolein (Perkin-Elmer NET-431), Butylated hydroxyl toluene (Aldrich, #D4740-4), DOPC (Sigma, # P6354), Sodium Bromide (Fisher scientific #S255-500), PEG 8000 (Fisher, #BP233-1), and human HDL (Intracel Corp #RP-036).
An in vitro assay for determining IC50's to identify compounds that inhibit CETP transfer activity is performed based on a modification of a published method (Morton and Zilversmit, (1981) A plasma inhibitor of triglyceride and cholesteryl ester transfer activities, J. Biol. Chem. 256(23), 11992-11995). The ability of inhibitors to alter CETP activity is performed using two different assays: one using recombinant CETP and one using an endogenous plasma source of CETP. Both assays measure the transfer of [3H] cholesteryl oleate or [3H] triolein from exogenous LDL to HDL.
Radiolabeled donor particles are generated by first combining 100 μl of 200 μM butylated hydroxyl toluene in CHCl3, 216 μL of 21.57 mM DOPC in EtOH, and either 500 μCi [3H]-triolein (Perkin Elmer #NET-431) or 500 μCi [3H]-cholesteryl oleate (GE #TRK886) in a glass tube. Reagents are mixed, dried under nitrogen, and then resuspended in 2 mL of 50 mM Tris, 27 μM EDTA at pH 7.4. After a brief vortex, the solution is sonicated until clear and mixed with 20 mL of fresh human serum. The mixture is incubated overnight at 37° C. The [3H] labeled LDL substrate is separated at 1.063 g/ml density by sequential ultracentrifugal flotation in NaBr according to the method of Havel, Eder, et al., 1955, and Chapman, Goldstein, et al., 1981. Once isolated the particles are dialyzed 3× in CETP buffer (50 mM Tris, pH 7.4, 100 mM NaCl, 1 mM EDTA). Human HDL is purchased from Intracel and used as the acceptor particles.
Transfer assays are performed in a 96-well v-bottom polypropylene plate. For the RTA using recombinant CETP (2% RTA), an assay cocktail is prepared with the final concentrations 128 μg/mL HDL, 20 nM rCETP, 2% human serum, and 1×CETP buffer. 1 μL of each test compound diluted in DMSO is added to 47 μL of assay cocktail per well and incubated at 37° C. for 1 hour. To initiate the transfer reaction, 2 μL radiolabeled LDL is added. After an additional 60 min of incubation at 37° C., the transfer action is terminated by precipitation of LDL with an equal volume of 20% WN PEG 8000. The plates are centrifuged at 2000 rpm for 30 minutes at 4° C. A 40 μL aliquot of the HDL-containing supernatant is transferred to a Packard Optiplate™ with 200 μL of MicroScint™ 20. After mixing, plates are counted by liquid scintillation. Counts present in the supernatant for blanks (wells containing only HDL acceptor, CETP buffer and DMSO) are subtracted from those containing test compounds and used to correct for non-specific transfer.
For the transfer assay using endogenous CETP from serum (95% RTA), the same procedure is used except that human serum is added such that a final concentration of serum of 95% of the total assay volume is achieved, yielding a concentration of approximately 15 nM endogenous CETP in the assay. This is then combined with HDL and CETP buffer and the reaction proceeds as above and is terminated as described.
Comparison of the counts of samples with inhibitors to an uninhibited (DMSO only) positive control yield a percent inhibition. A plot of percent inhibition vs. log of inhibitor concentration, fit to a Sigmoidal 4 parameter equation is used to calculate IC50.
Starting materials are commercially available or are made using known procedures or as shown below. The examples may be synthesized according to the general schemes provided below and by using the synthetic intermediates that are described. The data reported for the examples below were obtained using the RTA assay in 95% human serum.

[2] = anacetrapib with baseline statin therapy compared with patients treated with just a statin; cited from earlier work
[3] = Phase III outcomes trial, cited from earlier work
[4] = torcetrapib and atorvastatin concomitantly compared with atorvastatin alone; cited from earlier work

| SMILES | IC50 [1] [nM] | other results |
| --- | --- | --- |
| COc1ccc(-c2ccc(C(=O)O)cc2C)cc1-c1cnc(C(F)(F)F)cc1CC1=NO[C@H](c2cc(C(F)(F)F)cc(C(F)(F)F)c2)C1 [Example 8, (S)-3′-[4-({5-[3,5-bis(trifluoromethyl)phenyl]-4,5-dihydroisoxazol-3-yl}methyl)-6-(trifluoromethyl)pyridin-3-yl]-4′-methoxy-2-methylbiphenyl-4-carboxylic acid] | 1070 |  |
| COc1ncc(-c2ccc(C(=O)O)cc2C)cc1-c1ccc(C(F)(F)F)cc1CC1=NO[C@H](c2ccnc(C(F)(F)F)c2)C1 [Example 9, (S)-4-{6-methoxy-5-[4-(trifluoromethyl)-2-({5-[2-(trifluoromethyl)pyridin-4-yl]-4,5-dihydroisoxazol-3-yl}methyl)phenyl]pyridin-3-yl}-3-methylbenzoic acid] | 6500 |  |
| COc1ncc(-c2ccc(C(=O)O)cc2C)cc1-c1ccc(C(F)(F)F)nc1CC1=NO[C@H](c2cc(C(F)(F)F)cc(C(F)(F)F)c2)C1 [Example 10, (S)-4-[2′-({5-[3,5-bis(trifluoromethyl)phenyl]-4,5-dihydroisoxazol-3-yl}methyl)-2-methoxy-6′-(trifluoromethyl)-3,3′-bipyridin-5-yl]-3-methylbenzoic acid] | 400 |  |
| COc1ccc(-c2cc(-c3ccc(C(=O)O)cc3C)ccc2OC)c(CC2=NO[C@H](c3cc(C(F)(F)F)cc(C(F)(F)F)c3)C2)n1 [Example 11, (S)-3′-[2-({5-[3,5-bis(trifluoromethyl)phenyl]-4,5-dihydroisoxazol-3-yl}methyl)-6-methoxypyridin-3-yl]-4′-methoxy-2-methylbiphenyl-4-carboxylic acid] | 176 |  |
| COc1ccc(-c2cc(-c3ccc(C(=O)O)cc3C)cnc2OC)c(CC2=NO[C@H](c3cc(C(F)(F)F)cc(C(F)(F)F)c3)C2)n1 [Example 12, (S)-4-[2′-({5-[3,5-bis(trifluoromethyl)phenyl]-4,5-dihydroisoxazol-3-yl}methyl)-2,6′-dimethoxy-3,3′-bipyridin-5-yl]-3-methylbenzoic acid] | 880 |  |
| COc1ncc(-c2c(C)cc(C(=O)O)cc2C)cc1-c1ccc(C(F)(F)F)cc1CC1=NO[C@H](c2cc(C(F)(F)F)cc(C(F)(F)F)c2)[C@@H]1C [Example 13, 4-(5-(2-(((4R,5S)-5-(3,5-bis(trifluoromethyl)phenyl)-4-methyl-4,5-dihydroisoxazol-3-yl)methyl)-4-(trifluoromethyl)phenyl)-6-methoxypyridin-3-yl)-3,5-dimethylbenzoic acid] | 343 |  |
| COc1ncc(-c2ccc(C(=O)O)cc2C)cc1-c1ccc(C(F)(F)F)cc1CC1=NO[C@H](c2cc(C(F)(F)F)cc(C(F)(F)F)c2)[C@@H]1C [Example 14, 4-(5-(2-(((4R,5S)-5-(3,5-bis(trifluoromethyl)phenyl)-4-methyl-4,5-dihydroisoxazol-3-yl)methyl)-4-(trifluoromethyl)phenyl)-6-methoxypyridin-3-yl)-3-methylbenzoic acid] | 169 |  |
| COc1cc(F)c(C(C)C)cc1-c1ccc(C(F)(F)F)cc1CN1C(=O)O[C@H](c2cc(C(F)(F)F)cc(C(F)(F)F)c2)[C@@H]1C [anacetrapib] |  | decrease of LDL-C [2]: 40%; increase of HDL-C [2]: 138% |
| CCC(CC)CC1(C(=O)Nc2ccccc2SC(=O)C(C)C)CCCCC1 [dalcetrapib] |  | clinical benefit (interim data) ([3]; terminated early): did not show a clinical benefit; safety issues [3]: no safety issues detected |
| CCOC(=O)N1c2ccc(C(F)(F)F)cc2[C@@H](N(Cc2cc(C(F)(F)F)cc(C(F)(F)F)c2)C(=O)OC)C[C@H]1CC [torcetrapib] |  | mortality [4]: higher incidence of mortality |
